Laboratory results from US9102648B1, “Bioavailable diacylhydrazine ligands for modulating the expression of exogenous genes via an ecdysone receptor complex” (Intrexon Corporation, priority 2003, dated 2015).

What was measured:
[1] = Partition coefficient Log (D), 1-octanol / pH 7.4 buffer; type: physicochemical; conditions: for Log(D) Octanol/pH 7.4: water-saturated 1-octanol / pH 7.4 buffer, room temperature
Protocol: The partition coefficient, Log (D), between water-saturated 1-octanol and pH 7.4 buffer was determined for the test compounds. The buffer was prepared as described in section 2. A 12 μl aliquot of a 10 mM stock solution in DMSO was introduced to a vial containing 0.60 mL of octanol and 0.60 mL of buffer at room temperature. Testosterone was also added to a final concentration of 100 μM as an internal control. The solution was vortexed for 60 minutes and centrifuged at 10,000 rpm for 10 minutes. The organic and aqueous layers were removed. Serial dilutions of the organic layer were made with 50% methanol except for the initial dilution, which was made in 100% methanol. Serial dilutions of the aqueous layer were made in the pH 7.4 buffer. The diluted samples were then assayed by LC/MS for the compound as well as for testosterone. The Log of the ratio of peak area responses was calculated to obtain the Log (D). Typical Log D values for testosterone are from 3.0-3.3.

[2] = tested on: Caco-2 monolayers; assay: Bi-directional permeability, CACO-2; type: in vitro ADME; conditions: for Papp B-A / Papp A-B Ratio: Caco-2 efflux ratio
Protocol: (§1) Caco-2 monolayers were grown to confluence on collagen-coated, microporous, polycarbonate membranes in 12-well Costar Transwell plates. Details of the plates and their certification are shown below. The permeability assay buffer was Hank's Balanced Salt Solution containing 10 mM HEPES and 15 mM glucose at a pH of 7.0±0.2. The dosing solution concentration was 10 μM in assay buffer. At each time point, 1 and 2 hours, a 200-μL aliquot was taken from the receiver chamber and replaced with fresh assay buffer. Cells were dosed on the apical side (A-to-B) or basolateral side (B-to-A) and incubated at 37° C. with 5% CO2 and 90% relative humidity. Each determination was performed in duplicate. The important experimental parameters are outlined below. Permeability through a cell-free (blank) membrane was studied to determine non-specific binding and free diffusion of the compound through the device. Lucifer yellow flux was also measured for each monolayer after being subjected to the test compounds to ensure no damage was inflicted to the cell monolayers during the flux period.
(§2) All samples were assayed by LC/MS using electrospray ionization. Typical LC/MS conditions are as follows:
(§3) dCr/dt is the cumulative concentration in the receiver compartment versus time in M s^−1.
(§4) Vr is the volume of the receiver compartment in cm^3.
(§5) Vd is the volume of the donor compartment in cm^3.
(§6) A is the area of the cell monolayer (1.13 cm^2 for 12-well Transwell).
(§7) C0 is the concentration of the dosing solution in M.
(§8) Cr^final is the cumulative receiver concentration in M at the end of the incubation period.
(§9) Cd^final is the concentration of the donor in M at the end of the incubation period.

[3] = biological target: T1, Bombyx mori EcR (VP16 fusion, CVBE switch construct) (Bombyx mori, UniProt P49881); assay: Z3 Assay (HEK-293 cells with CVBE and 6XEcRE LacZ, β-galactosidase reporter); conditions: for Fold Induction, Z3 Assay, 3.3 uM: 3.3 uM ligand; for Z3 assay Rel Max FI: maximum fold induction at any concentration relative to that of GS-E ligand; for Z3 assay Rel Max FI / EC50: HEK-293 Z3 cells; for EC50: read-out: Z3 assay EC50, β-galactosidase reporter
T1 sequence (P49881 86-606): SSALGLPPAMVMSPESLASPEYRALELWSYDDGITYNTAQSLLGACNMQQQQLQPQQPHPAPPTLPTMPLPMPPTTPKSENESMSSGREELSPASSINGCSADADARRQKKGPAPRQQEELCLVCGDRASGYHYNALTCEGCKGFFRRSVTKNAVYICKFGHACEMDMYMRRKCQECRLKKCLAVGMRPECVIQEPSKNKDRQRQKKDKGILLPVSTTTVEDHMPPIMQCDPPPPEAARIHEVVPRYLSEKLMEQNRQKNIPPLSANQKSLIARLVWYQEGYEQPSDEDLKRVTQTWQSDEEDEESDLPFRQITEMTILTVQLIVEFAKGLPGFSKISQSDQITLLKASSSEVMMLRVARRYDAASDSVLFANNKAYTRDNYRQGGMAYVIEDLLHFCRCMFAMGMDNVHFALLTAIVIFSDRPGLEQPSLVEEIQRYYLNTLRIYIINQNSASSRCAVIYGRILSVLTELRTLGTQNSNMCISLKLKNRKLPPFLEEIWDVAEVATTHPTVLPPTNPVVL
T1 sequence (P19793 1-462 partner): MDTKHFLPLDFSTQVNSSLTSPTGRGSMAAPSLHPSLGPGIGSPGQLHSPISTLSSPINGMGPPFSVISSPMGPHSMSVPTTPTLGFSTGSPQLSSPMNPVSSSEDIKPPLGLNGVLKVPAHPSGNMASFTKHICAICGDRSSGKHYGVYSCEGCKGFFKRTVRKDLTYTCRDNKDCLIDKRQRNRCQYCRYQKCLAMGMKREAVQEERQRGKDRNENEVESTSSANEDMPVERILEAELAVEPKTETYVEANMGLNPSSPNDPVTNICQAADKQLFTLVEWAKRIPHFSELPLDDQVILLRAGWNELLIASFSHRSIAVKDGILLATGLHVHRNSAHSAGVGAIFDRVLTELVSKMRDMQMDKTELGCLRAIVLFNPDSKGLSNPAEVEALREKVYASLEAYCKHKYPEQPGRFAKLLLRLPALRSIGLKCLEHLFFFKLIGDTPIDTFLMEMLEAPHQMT

[4] = Aqueous equilibrium solubility in pH 7.4 buffer; conditions: pH 7.4 aqueous buffer, room temperature, equilibrium
[5] = Bi-directional permeability, CACO-2; type: in vitro ADME; conditions: human, Caco-2, Papp × 10^−6 cm/s (plate certification)
Protocol: as §1, §2, §3, §4, §5, §6, §7, §8, §9

[6] = Determination of LC Log P (experimental); type: physicochemical; conditions: diacylhydrazine log P standards (log P known experimentally)
Protocol: Liquid chromatography retention times (RT) are measured for each substance using the conditions described below. A linear equation is derived relating RT to log P is developed from the data for the log P standards. The log P for the test compound is calculated from the log P/retention time equation.

[7] = biological target: GAL4 DBD (1-147)-CfEcR(DEF)/VP16AD-βRXREF-LmUSPEF (Choristoneura fumiferana, UniProt O77240); assay: cell-based
[8] = tested on: mutated ecdysone receptor-based gene switch; assay: In vivo SEAP induction, ligand by IP injection; set-up: species or system C57BL/6 mouse; conditions: IP 26 nmol ligand
Protocol: Applicants' ligands are useful in various applications including gene therapy, expression of proteins of interest in host cells, production of transgenic organisms, and cell-based assays. In vivo induction of a reporter enzyme with various ligands of the present invention was evaluated in a C57BL/6 mouse model system containing a gene switch.
Each element of the gene switch was on a separate plasmid. Receptor expression was under the control of a CMV promoter (SEQ ID NO: 15). Induction was evaluated by the amount of reporter protein expressed in the presence of ligand.
SEAP expression in serum of mice was evaluated after electroporation of the gene switch into mouse quadriceps. Mice were anesthetized with 2 μL/g of a mixture of ketamine (100 mg/mL) and xylazine (20 mg/mL). Animals were then shaved, DNA vectors injected into the muscle in a volume of 2×50 μL polyglutamic acid (12 mg/mL water), electrode conductivity gel applied, and an electrode caliber (1 cm×1 cm; model 384) was placed on hind leg. The muscle was electroporated with 200 V/cm, 8 times, for 20 msec/pulse, at 1 sec time intervals. The transverse electrical field direction was reversed after the animals received half of the pulses. Electroporation was performed with an ECM 830 electroporator from BTX Molecular Delivery Systems.
In some experiments mice received an intraperitoneal injection (IP) of 2.6 μmol of ligand in 50 μL of DMSO 3 days after electroporation of the gene switch. In other experiments the concentration of ligand was decrease to 26 nmol/50 μL of DMSO/mouse. SEAP expression was evaluated 2-11 days after ligand administration. In other experiments ligand was administered in rodent chow. The chow was prepared by dissolving 2 g of ligand in 20 mL of acetone and adding it to 1 kg of LabDiet 5010 autoclavable chow from Purina Mills. This was thoroughly mixed in a Hobart mixer and then mixed for an additional 15 min in a Cross Blend mixer. Animals received chow ad libitum for 1, 2, or 3 days. All values are the average from four animals. Background SEAP in sera from animals treated with vector alone without ligand addition was 0-11 ng/mL serum.
Mouse serum was obtained by centrifugation of blood acquired by retroorbital bleeding with a small glass capillary tube. SEAP quantification was determined using a Clontech Great Escape chemiluminescence kit and by comparison with the Clontech SEAP standard.
Table 9: In vivo evaluation of ligand-mediated induction of a mutated ecdysone receptor-based gene switch. SEAP expression in serum of mice was evaluated after electroporation of the gene expression cassettes into mouse quadriceps. Mice received an IP injection of 2.6 μmol of ligand 3 days after electroporation. SEAP expression was evaluated 2-11 days after ligand administration. Each dose group was composed of four animals. Percentage of GS™-E ligand induction was determined by averaging SEAP expression from four animals divided by the average SEAP expression induced with GS™-E ligand and then multiplying by 100.
Table 10: Induction of gene switch expression with low concentrations of ligand. SEAP expression in serum of mice was evaluated after electroporation of the gene expression cassettes into mouse quadriceps. Mice received an IP injection of 26 nmol of ligand or 130 nmol GS™-E ligand 3 days after electroporation. SEAP expression was evaluated 2-7 days after ligand administration. Values are the average from 4 animals.

[9] = ligand treated / DMSO treated cells, average of two wells

CCc1c(OC)cccc1C(=O)NN(C(=O)c1ccccc1S(=O)(=O)O)C(C)(C)C [RG-115555]
Log(D) Octanol/pH 7.4 [1]: 0.0
Papp Blank ([2]; Caco-2): 35.8 10^−6 cm/s
Papp, A-to-B Avg ([2]; Caco-2): 0.18 10^−6 cm/s
Papp, A-to-B Rep. 1 ([2]; Caco-2): 0.18 10^−6 cm/s
Papp, A-to-B Rep. 2 ([2]; Caco-2): 0.18 10^−6 cm/s
Papp, B-to-A Avg ([2]; Caco-2): 1.61 10^−6 cm/s
Papp, B-to-A Rep. 1 ([2]; Caco-2): 1.55 10^−6 cm/s
Papp, B-to-A Rep. 2 ([2]; Caco-2): 1.67 10^−6 cm/s
Papp B-A / Papp A-B Ratio [2]: 8.9
Fold Induction, Z3 Assay, 3.3 uM [3, 9]: 1
Z3 assay Rel Max FI [3]: 0.006
EC50 ([3]; average of two wells): > 50 µM
Solubility pH 7.4 [4]: ≧1.0 mg/mL

CC(C)NCC(O)COc1cccc2ccccc12 (stereo not drawn) [Propranolol, reference compound]
Papp [5]: 20 ×10⁻⁶ cm/s
Papp × 10^−6 cm/s (plate certification) ([2]; human, Caco-2): 19 10^−6 cm/s

CCc1c(C(=O)NN(C(=O)c2ccc(F)cc2Cl)C(C)(C)C)ccc2c1OCOC2 [RG-115002, reference compound]
logP [6]: 3.5

CCc1ccc(C(=O)NN(C(=O)c2cc(Cl)cc(Cl)c2)C(C)(C)C)c(F)c1 [RG-115372, reference compound]
logP [6]: 5.02

Cc1cc(C)cc(C(=O)N(NC(=O)c2cccc(O)c2C)C(C)(C)C)c1 [RG-102208, reference compound]
logP [6]: 2.9

C[C@]12CC[C@H]3[C@@H](CCC4=CC(=O)CC[C@@]43C)[C@@H]1CC[C@@H]2O [testosterone, Testosterone, reference compound]
logD ([1]; internal control, octanol / pH 7.4 buffer, read-out: Typical Log D values): 3 to 3.3

CC(O)c1ccc(C(=O)NN(C(=O)c2cc(CO)cc(CO)c2)C(C)(C)C)cc1 (stereo not drawn) [RG-100021]
Log(D) Octanol/pH 7.4 [1]: 0.8
Papp Blank ([2]; Caco-2): 43.0 10^−6 cm/s
Papp, A-to-B Avg ([2]; Caco-2): 0.22 10^−6 cm/s
Papp, A-to-B Rep. 1 ([2]; Caco-2): 0.21 10^−6 cm/s
Papp, A-to-B Rep. 2 ([2]; Caco-2): 0.22 10^−6 cm/s
Papp, B-to-A Avg ([2]; Caco-2): 0.93 10^−6 cm/s
Papp, B-to-A Rep. 1 ([2]; Caco-2): 0.91 10^−6 cm/s
Papp, B-to-A Rep. 2 ([2]; Caco-2): 0.95 10^−6 cm/s
Significant Efflux ([2]; Caco-2): No
Fold Induction, Z3 Assay, 33 uM ([3]; 33 uM ligand, ligand treated / DMSO treated cells, average of two wells): 1
Solubility pH 7.4 [4]: ≧1.0 mg/mL

Lucifer Yellow [reference compound]
Papp × 10^−6 cm/s (plate certification) ([2]; Caco-2 plate TW12, first certification column (seed date Jun. 11, 2002)): 0.14 10^−6 cm/s
Papp × 10^−6 cm/s (plate certification) ([2]; Caco-2 plate TW12, second certification column (seed date Jun. 18, 2002)): 0.12 10^−6 cm/s

CCCC(N(NC(=O)c1ccc2c(c1C)OCCO2)C(=O)c1cc(C)cc(C)c1)C(C)(C)C (stereo not drawn) [RG-115864, 3,5-Dimethyl-benzoic acid N-(1-tert-butyl-butyl)-N′-(5-methyl-2,3-dihydro-benzo[1,4]dioxine-6-carbonyl)-hydrazide]
EC50 [7]: 0.004 µM
27-63 assay Rel Max FI ([7]; maximum fold induction at any concentration relative to that of GS-E ligand, CHO 27-63 cells): 0.979
fold induction at 33 µM ([7]; read-out: Fold Induction, 27-63 Assay, 33 uM): 1260
Secreted Alkaline Phosphatase Day 2 ([8]; day 2): 6,722 ng/ml mouse sera
Secreted Alkaline Phosphatase Day 3 ([8]; day 3): 5,652 ng/ml mouse sera

CCc1c(OC)cccc1C(=O)NN(C(=O)c1ccccc1[S+](C)[O-])C(C)(C)C (stereo not drawn) [RG-115199]
Log(D) Octanol/pH 7.4 [1]: 2.0
Papp Blank ([2]; Caco-2): 23.0 10^−6 cm/s
Papp, A-to-B Avg ([2]; Caco-2): 30.6 10^−6 cm/s
Papp, A-to-B Rep. 1 ([2]; Caco-2): 31.1 10^−6 cm/s
Papp, A-to-B Rep. 2 ([2]; Caco-2): 30.2 10^−6 cm/s
Papp, B-to-A Avg ([2]; Caco-2): 30.9 10^−6 cm/s
Papp, B-to-A Rep. 1 ([2]; Caco-2): 31.0 10^−6 cm/s
Papp, B-to-A Rep. 2 ([2]; Caco-2): 30.9 10^−6 cm/s
Significant Efflux ([2]; Caco-2): No
Papp B-A / Papp A-B Ratio [2]: 1.0
Fold Induction, Z3 Assay, 3.3 uM [3, 9]: 349
Z3 assay Rel Max FI [3]: 0.734
EC50 ([3]; average of two wells): 3.47 µM
Solubility pH 7.4 [4]: 0.0064 mg/mL
